Patent US7279179B2, “Liposome-entrapped topoisomerase inhibitors” (ALZA Corporation, priority 1988, dated 2007)
Each block holds one compound with its values, some of them ahead of it.

How the values were obtained:
[1] = Plasma pharmacokinetics of liposome-entrapped and free CKD-602 in rats; conditions: 1 mg/kg
[2] = system: HT-29 colon cancer xenograft; test: HT-29 xenograft efficacy of liposome-entrapped CKD-602 (Example 5); format: in vivo, mice
in vivo = conditions: rat
[3] = Plasma pharmacokinetics of liposome-entrapped and free topotecan in rats; format: in vivo; conditions: for Vol. Dist. / elimination rate constant: i.v.; for AUC / Cmax / clearance / half-life: rat, plasma, iv; for half-life: read-out: T ½ (converted)
Description: FIGS. 4A–4B show the plasma concentration of topotecan as a function of time after administration to rats. […] FIG. 4B compares the two forms of the drug at a dosage of 5 mg/kg.

[4] = system: HT-29 subcutaneous xenograft tumor; format: in vivo
[5] = 20 mg/kg i.v. days 11, 18, 25, animals/group
[6] = 25 mg/kg i.v. days 9, 16, 23, groups of 12 mice

Compound: CC[C@@]1(O)C(=O)OCc2c1cc1n(c2=O)Cc2c-1nc1ccccc1c2CCNC(C)C [free CKD602]
AUC [1]: 0.37 µg/mL/h
calculated half-life [1]: 12 min
tumor growth rate ([2]; 20 mg/kg): 15.21 mm^3 per day
% T/C Day 29 ([2]; 20 mg/kg i.v. days 11, 18, 25): 129.1%
% T/C Day 33 ([2]; 20 mg/kg i.v. days 11, 18, 25): 120.1%
% T/C Day 36 ([2]; 20 mg/kg i.v. days 11, 18, 25): 99.9%
Complete Remission [2, 5]: 0/6
Non-Responsive [2, 5]: 6/6
Partial Remission [2, 5]: 0/6

half-life (in vivo): ~50 min
Compound: CC[C@@]1(O)C(=O)OCc2c1cc1n(c2=O)Cc2c-1nc1cc3c(cc1c2CN1CCN(C)CC1)OCCO3 [free MPE-camptothecin, 7-(4-methyl-piperazino-methylene)-10,11-ethylenedioxy-20(S)-camptothecin]

Compound: CC[C@@]1(O)C(=O)OCc2c1cc1n(c2=O)Cc2cc3c(CN(C)C)c(O)ccc3nc2-1 [free topotecan, 9-dimethyl-aminomethyl-10-hydroxycamptothecin]
Vol. Dist. ([3]; Dosage = 2 mg/kg): 173 mL
elimination rate constant ([3]; Dosage = 2 mg/kg): 3.45 h⁻¹
Vol. Dist. ([3]; Dosage = 5 mg/kg): 278 mL
elimination rate constant ([3]; Dosage = 5 mg/kg): 2.33 h⁻¹
AUC ([3]; Dosage = 2 mg/kg): 570 ng·h/mL
Cmax ([3]; Dosage = 2 mg/kg): 2890 ng/mL
clearance ([3]; Dosage = 2 mg/kg): 14.8 mL/min
half-life ([3]; Dosage = 2 mg/kg): 12 min
AUC ([3]; Dosage = 5 mg/kg): 1570 ng·h/mL
Cmax ([3]; Dosage = 5 mg/kg): 8230 ng/mL
clearance ([3]; Dosage = 5 mg/kg): 13.7 mL/min
half-life ([3]; Dosage = 5 mg/kg): 18 min
tumor growth rate ([4]; 25 mg/kg): 14.1 mm^3 per day
% T/C Day 29 ([4]; 25 mg/kg i.v. days 9, 16, 23): 82.8%
% T/C Day 33 ([4]; 25 mg/kg i.v. days 9, 16, 23): 79.0%
% T/C Day 36 ([4]; 25 mg/kg i.v. days 9, 16, 23): 85.9%
Complete Remission (number of animals) [4, 6]: 0
Non-Responsive (number of animals) [4, 6]: 11
Partial Remission (number of animals) [4, 6]: 1
